{"source": "PubChem BioAssay (NCI)", "test_in_all_cases": "inhibition of tumour cell growth, NCI panel, 48 h", "key": {"786-0 renal": {"test_system": "786-0 renal"}, "A498 renal": {"test_system": "A498 renal"}, "A549 NSCLC": {"test_system": "A549 NSCLC"}, "ACHN renal": {"test_system": "ACHN renal"}, "BT-549 breast": {"test_system": "BT-549 breast"}, "CAKI-1 renal": {"test_system": "CAKI-1 renal"}, "CCRF-CEM leukemia": {"test_system": "CCRF-CEM leukemia"}, "COLO 205 colon": {"test_system": "COLO 205 colon"}, "DU-145 prostate": {"test_system": "DU-145 prostate"}, "EKVX NSCLC": {"test_system": "EKVX NSCLC"}, "HCC-2998 colon": {"test_system": "HCC-2998 colon"}, "HCT-116 colon": {"test_system": "HCT-116 colon"}, "HCT-15 colon": {"test_system": "HCT-15 colon"}, "HL-60(TB) leukemia": {"test_system": "HL-60(TB) leukemia"}, "HOP-62 NSCLC": {"test_system": "HOP-62 NSCLC"}, "HOP-92 NSCLC": {"test_system": "HOP-92 NSCLC"}, "HS 578T breast": {"test_system": "HS 578T breast"}, "HT29 colon": {"test_system": "HT29 colon"}, "IGROV1 ovarian": {"test_system": "IGROV1 ovarian"}, "K-562 leukemia": {"test_system": "K-562 leukemia"}, "KM12 colon": {"test_system": "KM12 colon"}, "LOX IMVI melanoma": {"test_system": "LOX IMVI melanoma"}, "M14 melanoma": {"test_system": "M14 melanoma"}, "MALME-3M melanoma": {"test_system": "MALME-3M melanoma"}, "MCF7 breast": {"test_system": "MCF7 breast"}, "MDA-MB-231 breast": {"test_system": "MDA-MB-231 breast"}, "MDA-MB-435": {"test_system": "MDA-MB-435"}, "MOLT-4 leukemia": {"test_system": "MOLT-4 leukemia"}, "NCI-H226 lung": {"test_system": "NCI-H226 lung"}}, "note": "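Method: 48-hour compound exposure of cells in 96-well plates, five concentrations, linear interpolation of endpoints. Here, GI50 denotes the concentration required for 50% inhibition of growth. TGI denotes the concentration required for complete inhibition of growth.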", "data": [{"smiles": "CCS(=O)(=O)c1ccc(OC)c(Nc2ncc(-c3cccc(OC)c3)o2)c1", "values": [{"measurement": "GI50", "setting": "786-0 renal", "value": 9.57, "unit": "µM"}, {"measurement": "TGI", "setting": "786-0 renal", "value": "> 25", "unit": "µM"}, {"measurement": "GI50", "setting": "A498 renal", "value": 0.728, "unit": "µM"}, {"measurement": "TGI", "setting": "A498 renal", "value": 4.28, "unit": "µM"}, {"measurement": "GI50", "setting": "A549 NSCLC", "value": 8.75, "unit": "µM"}, {"measurement": "TGI", "setting": "A549 NSCLC", "value": "> 25", "unit": "µM"}, {"measurement": "GI50", "setting": "ACHN renal", "value": 6.61, "unit": "µM"}, {"measurement": "TGI", "setting": "ACHN renal", "value": "> 25", "unit": "µM"}, {"measurement": "GI50", "setting": "BT-549 breast", "value": 14.6, "unit": "µM"}, {"measurement": "TGI", "setting": "BT-549 breast", "value": "> 25", "unit": "µM"}, {"measurement": "GI50", "setting": "CAKI-1 renal", "value": 8.58, "unit": "µM"}, {"measurement": "TGI", "setting": "CAKI-1 renal", "value": "> 25", "unit": "µM"}, {"measurement": "GI50", "setting": "CCRF-CEM leukemia", "value": 10.7, "unit": "µM"}, {"measurement": "TGI", "setting": "CCRF-CEM leukemia", "value": "> 25", "unit": "µM"}, {"measurement": "GI50", "setting": "COLO 205 colon", "value": 10.3, "unit": "µM"}, {"measurement": "TGI", "setting": "COLO 205 colon", "value": "> 25", "unit": "µM"}, {"measurement": "GI50", "setting": "DU-145 prostate", "value": 9.99, "unit": "µM"}, {"measurement": "TGI", "setting": "DU-145 prostate", "value": "> 25", "unit": "µM"}, {"measurement": "GI50", "setting": "EKVX NSCLC", "value": 18.9, "unit": "µM"}, {"measurement": "TGI", "setting": "EKVX NSCLC", "value": "> 25", "unit": "µM"}, {"measurement": "GI50", "setting": "HCC-2998 colon", "value": 23, "unit": "µM"}, {"measurement": "TGI", "setting": "HCC-2998 colon", "value": "> 25", "unit": "µM"}, {"measurement": "GI50", "setting": "HCT-116 colon", "value": 8.1, "unit": "µM"}, {"measurement": "TGI", "setting": "HCT-116 colon", "value": "> 25", "unit": "µM"}, {"measurement": "GI50", "setting": "HCT-15 colon", "value": 10.6, "unit": "µM"}, {"measurement": "TGI", "setting": "HCT-15 colon", "value": "> 25", "unit": "µM"}, {"measurement": "GI50", "setting": "HL-60(TB) leukemia", "value": 16.4, "unit": "µM"}, {"measurement": "TGI", "setting": "HL-60(TB) leukemia", "value": "> 25", "unit": "µM"}, {"measurement": "GI50", "setting": "HOP-62 NSCLC", "value": 9.41, "unit": "µM"}, {"measurement": "TGI", "setting": "HOP-62 NSCLC", "value": "> 25", "unit": "µM"}, {"measurement": "GI50", "setting": "HOP-92 NSCLC", "value": 2.76, "unit": "µM"}, {"measurement": "TGI", "setting": "HOP-92 NSCLC", "value": 9.17, "unit": "µM"}, {"measurement": "GI50", "setting": "HS 578T breast", "value": 5.48, "unit": "µM"}, {"measurement": "TGI", "setting": "HS 578T breast", "value": 17.6, "unit": "µM"}, {"measurement": "GI50", "setting": "HT29 colon", "value": 10.8, "unit": "µM"}, {"measurement": "TGI", "setting": "HT29 colon", "value": "> 25", "unit": "µM"}, {"measurement": "GI50", "setting": "IGROV1 ovarian", "value": 6.8, "unit": "µM"}, {"measurement": "TGI", "setting": "IGROV1 ovarian", "value": "> 20.7", "unit": "µM"}, {"measurement": "GI50", "setting": "K-562 leukemia", "value": 4.34, "unit": "µM"}, {"measurement": "TGI", "setting": "K-562 leukemia", "value": "> 25", "unit": "µM"}, {"measurement": "GI50", "setting": "KM12 colon", "value": 1.06, "unit": "µM"}, {"measurement": "TGI", "setting": "KM12 colon", "value": "> 25", "unit": "µM"}, {"measurement": "GI50", "setting": "LOX IMVI melanoma", "value": 6.12, "unit": "µM"}, {"measurement": "TGI", "setting": "LOX IMVI melanoma", "value": 24.8, "unit": "µM"}, {"measurement": "GI50", "setting": "M14 melanoma", "value": 14.6, "unit": "µM"}, {"measurement": "TGI", "setting": "M14 melanoma", "value": "> 25", "unit": "µM"}, {"measurement": "GI50", "setting": "MALME-3M melanoma", "value": "> 25", "unit": "µM"}, {"measurement": "TGI", "setting": "MALME-3M melanoma", "value": "> 25", "unit": "µM"}, {"measurement": "GI50", "setting": "MCF7 breast", "value": "> 18.3", "unit": "µM"}, {"measurement": "TGI", "setting": "MCF7 breast", "value": "> 25", "unit": "µM"}, {"measurement": "GI50", "setting": "MDA-MB-231 breast", "value": 8.54, "unit": "µM"}, {"measurement": "TGI", "setting": "MDA-MB-231 breast", "value": "> 25", "unit": "µM"}, {"measurement": "GI50", "setting": "MDA-MB-435", "value": 18.2, "unit": "µM"}, {"measurement": "TGI", "setting": "MDA-MB-435", "value": "> 25", "unit": "µM"}, {"measurement": "GI50", "setting": "MOLT-4 leukemia", "value": 13.5, "unit": "µM"}, {"measurement": "TGI", "setting": "MOLT-4 leukemia", "value": "> 25", "unit": "µM"}, {"measurement": "GI50", "setting": "NCI-H226 lung", "value": 4.65, "unit": "µM"}, {"measurement": "TGI", "setting": "NCI-H226 lung", "value": "> 23.6", "unit": "µM"}]}]}
